Test results: US12036270B2, “Method for immunomodulation of using aza-podophyllotoxin derivatives” (Sistema Universitario Ana G. Mendez, priority 2015, dated 2024)
Where “and” joins values, the source holds several entries; their conditions need not be identical. Identical values can stand only once.

Tested on: mouse splenocytes
Test: in vitro stimulation of mouse splenocytes/lymphocytes, cytokine release measured in supernatant by protein microarray chip
Format: cell-based
Conditions: for IL-6 produced: Example 1 and b94-b99; for GCSF levels: Example 2 and b94-b99; for cytokine milieu (TH1/TH2/TH17 bias): profile of AP-treated mouse splenocytes
Procedure: A total of 2×10^5 mouse splenocytes per well were cultured in a humidified atmosphere at 37° C. and 5% CO2 in round-bottomed 96-well culture plates for five days with the AP compounds […]. Concanavalin A ([…]) and culture media were used as positive and negative controls, respectively. Plates were centrifuged at 1,200 RPM for five minutes, and supernatants were collected. The resulting cytokine profile produced after lymphocyte stimulation was analyzed using a fluorescently-labeled protein microarray chip as indicated by the manufacturer (RayBiotech, Norcross, Ga., USA).
The immunomodulatory effect of the AP compounds was assessed by in vitro stimulation of mouse lymphocytes for five days.

[1] = mouse splenocytes, five days, listed as AP-102
[2] = mouse splenocytes, five days, listed as AP-103
[3] = mouse splenocytes, five days, listed as AP-311
[4] = mouse splenocytes, five days, listed as AP-312

SMILES	IL-12 (IL-12p70) induced (mouse splenocytes, five days)	IL-6 produced (mouse splenocytes, five days)	GCSF levels (mouse splenocytes, five days)	G-CSF induced (summary / preliminary data) (mouse splenocytes, five days)	IL-6 induced (summary / preliminary data) (mouse splenocytes, five days)	cytokine milieu (TH1/TH2/TH17 bias)	IL-1b induced (mouse splenocytes, five days)	IL-23 induced (mouse splenocytes, five days)	IL-15 induced (mouse splenocytes, five days)	also measured
COc1ccc(C2C3=C(COC3=O)N(CCO)c3cc4c(cc32)OCO4)cc1OC (stereo not drawn) [AP102]	29 pg/mL	257 pg/mL	736 pg/mL	2208 pg/mL	772 pg/mL	highest TH17 cytokine biased, followed by a close TH2 biased and a smaller TH1 cytokine milieu	–	–	–	IL-2 induced (mouse splenocytes, five days): 17 pg/mL; IL-17 induced (mouse splenocytes, five days): 294 pg/mL; IL-6 produced [1]: 257.35 pg/mL; GCSF levels [1]: 735.83 pg/mL; IL-2 induced [1]: 17.36 pg/mL; IL-12 (IL-12p70) induced [1]: 29.09 pg/mL
COc1cccc(C2C3=C(COC3=O)N(CCO)c3cc4c(cc32)OCO4)c1 (stereo not drawn) [AP103]	21 pg/mL	375 pg/mL	858 pg/mL	2575 pg/mL	1125 pg/mL	high TH2-type cytokines, but equally comparably low TH1 and TH2	3.95 pg/mL	–	–	IL-6 produced [2]: 535.06 pg/mL; GCSF levels [2]: 858.15 pg/mL; IL-12 (IL-12p70) induced [2]: 35.70 pg/mL
O=C1OCC2=C1C(c1ccccc1)c1cc3c(cc1N2CCO)OCO3 (stereo not drawn) [AP104]	22 pg/mL	261 pg/mL and 260.85 pg/mL	690 pg/mL and 690.39 pg/mL	2071 pg/mL	782 pg/mL	high TH2-type cytokines, but equally comparably low TH1 and TH2	–	58 pg/mL and 58.48 pg/mL	–	IFN-gamma induced (mouse splenocytes, five days): 104.58 pg/mL; IL-2p70 induced (so in the source) (mouse splenocytes, five days): 21.99 pg/mL; IL-10 induced (mouse splenocytes, five days): 14 pg/mL and 13.78 pg/mL
COc1cc(C2C3=C(COC3=O)N(CCO)c3cc4c(cc32)CCC4)cc(OC)c1O (stereo not drawn) [AP205]	60 pg/mL and 60.14 pg/mL	1445 pg/mL and 1444.71 pg/mL	2336 pg/mL and 2336.49 pg/mL	7166 pg/mL	4351 pg/mL	high TH2-type cytokines, but equally comparably low TH1 and TH2	19.45 pg/mL	80 pg/mL and 79.96 pg/mL	94 pg/mL and 94.04 pg/mL	IL-1a induced (mouse splenocytes, five days): 20 pg/mL and 20.29 pg/mL; IL-9 induced (mouse splenocytes, five days): 30 pg/mL and 30.45 pg/mL
COc1ccc(C2C3=C(COC3=O)N(CCO)c3cc4c(cc32)OCCO4)c(OC)c1OC (stereo not drawn) [AP311]	–	184 pg/mL	–	–	551 pg/mL	strong TH2 cytokine milieu, followed by a TH17, and a smaller TH1 cytokine profile	–	27 pg/mL	56 pg/mL	IL-6 produced [3]: 183.76 pg/mL; IL-23 induced [3]: 26.66 pg/mL
COc1cccc(C2C3=C(COC3=O)N(CCO)c3cc4c(cc32)OCCO4)c1OC (stereo not drawn) [AP312]	13 pg/mL	270 pg/mL	–	–	810 pg/mL	strong TH2 cytokine milieu, followed by a TH17, and a smaller TH1 cytokine profile	11.89 pg/mL	–	–	IL-6 produced [4]: 269.89 pg/mL; IL-12 (IL-12p70) induced [4]: 27.89 pg/mL
